1 molecule from patent US12370210B2, “Carbon monoxide as a treatment for neurodegenerative disease” (The General Hospital Corporation, priority 2019, dated 2025) can be followed below.

This test concerns mouse MPTP toxin model. The experiment in a line: Mouse MPTP toxin model, striatal DA by HPLC and TH+ neuron counts after inhaled CO. Type of test: in vivo. An excerpt: FIGS. 7A-C. Effect of single dose inhaled CO in the MPTP model. CO (225 ppm; 1 hr) or air (1 hr) administered 1 hr after MPTP or saline injection (normal control saline data not shown; no difference between groups in normal control animals). Animal sacrifice 5 days after MPTP. A. CO preserved striatal dopamine (DA) (P<0.03, t-test; 22 mice/grp). Striatal DA levels measured with HPLC, B. CO reduced loss of substantia nigra pars compacta (SNpc) tyrosine hydroxylase-positive (TH+) neurons. C. Stereological nigral TH+ neuron counts after CO treatment or air (P<0.05, t-test). Mean±std error.
We also employed a short-term regimen of the widely used^5253 MPTP toxin model in which DA loss ensues within 5-8 days of MPTP. We elected to initiate iCO treatment only after MPTP exposure in order to model protective treatment of human PD, which begins only after disease onset. We exposed mice to MPTP (40 mg/kg, i.p.)^54,55 or saline (study control) and then treated with a single dose of either iCO (225 ppm) or air (negative control) for 1 hr, for 4 total groups: 1) MPTP/CO (225 ppm; 1 hr), 2) MPTP/air (1 hr), 3) saline/CO (225 ppm; 1 hr), 4) saline/air (1 hr). Five days after MPTP exposure, we measured DA levels in the striata via HPLC and counted TH+ neurons in all groups. MPTP mice treated with CO had ˜46% higher DA levels than those treated with air (2-tailed t-test, p=0.028; FIG. 7A). […] Critically, for TH+ neurons, MPTP mice treated with iCO had ˜22% more TH+ neurons than those treated with air (p<0.05; FIGS. 7B-C).

Take `[C-]#[O+]` [CO, carbon monoxide]: under “MPTP 40 mg/kg i.p., CO 225 ppm 1 hr, single dose 1 hr after MPTP, 5 days after MPTP, p=0.028”, the “striatal DA levels higher than air-treated MPTP mice” value is given as approximately 46%. For the same molecule, the “more TH+ neurons than air-treated MPTP mice” value (MPTP 40 mg/kg i.p., iCO 225 ppm 1 hr, 5 days after MPTP, p<0.05) is on record as approximately 22%. The “striatal DA levels in saline-treated mice” value (saline instead of MPTP, iCO 225 ppm 1 hr, n=22 per group, p>0.05 vs air) is 97.0 ± 2.4 pmol/mg. Also, the “TH+ cell counts in saline-treated mice” value (saline instead of MPTP, iCO 225 ppm 1 hr, p>0.05 vs air) is recorded as 7,437±545.
